“Also recorded” adds a separate entry of the source. Like-named read-outs stand apart in the source and are kept apart here.
Columns and labels:
[1] = system: BT-20 xenograft tumors; experiment: Xenograft tumor model
[2] = system: BT-20 cells; experiment: RNA expression analysis by microarray; type: cell-based, human; conditions: for differentially expressed genes (DEGs): erlotinib alone
Source text: (§1) RNA was extracted from cells using the RNAeasy Kit (QIAGEN). Affymetrix Human U133 Plus 2.0 microarrays were hybridized, labeled, and processed on a fee-for-service basis through the MIT BioMicro Center. Microarray data were obtained from three independent biological replicates per time point and analyzed using linear model for microarray (LIMMA).
(§2) RNA was extracted from cells using the RNAeasy Kit (QIAGEN). Affymetrix Human U133 Plus 2.0 microarrays were hybridized, labeled and processed on a fee-for-service basis through the BioMicro Center at MIT. Microarray data were obtained from 3 independent biological replicates per time point. Detailed analysis of microarray data was performed with help from the Bioinformatics Core Facility at the Koch Institute at MIT. Expression data can be found in the GEO repository under the accession number GSE30516.

[3] = system: MDA-MB-453 cells; experiment: RNA expression analysis by microarray; type: cell-based, human; conditions: erlotinib alone, 24 hr
Source text: as §1, §2

[4] = system: MCF7 cells; experiment: RNA expression analysis by microarray; type: cell-based, human; conditions: erlotinib alone, 24 hr
Source text: as §1, §2

[5] = system: BT-20 cells
Description: (§3) 1×10^6 cells were seeded in a 10 cm dish 24 hr prior to the experiment. […] Following the treatment time course, cells were washed in PBS, trypsinized, and fixed in 4% paraformaldehyde (PFA) in PBS for 15 min at room temperature (RT), then resuspended in ice cold methanol and incubated overnight at −20° C. Cells were then washed twice in PBS+0.1% Tween and stained with antibodies directed against cleaved forms of caspase-3 and PARP (BD PharMingen). […] Data reported are always percent cleaved-caspase-3/cleaved-PARP double positive cells.
(§4) Following the treatment time course, cells were washed, trypsinized, fixed in 4% paraformaldehyde for 15 min at room temperature, resuspended in ice-cold methanol, and incubated overnight at −20° C. Cells were then washed twice in PBS-Tween and stained with antibodies against cleaved caspase-3 and poly(ADP-ribose) polymerase (PARP). Secondary Alexa-conjugated anti-bodies were used for visualization in a BD FacsCaliber flow cytometer.

[6] = system: ten triple-negative cell lines; experiment: Apoptosis across panel of triple-negative cell lines; type: cell-based, human; conditions: time-staggered ERL→DOX
Description: (§5) 1×10^6 cells were seeded in a 10 cm dish 24 hr prior to the experiment. […]. Following the treatment time course, cells were washed in PBS, trypsinized, and fixed in 4% paraformaldehyde (PFA) in PBS for 15 min at room temperature (RT), then resuspended in ice cold methanol and incubated overnight at −20° C. Cells were then washed twice in PBS+0.1% Tween and stained with antibodies directed against cleaved forms of caspase-3 and PARP (BD PharMingen). Secondary antibodies conjugated to Alexa dyes (488 and 647) were used for visualization in a BD FacsCaliber flow cytometer (Molecular Probes). Data reported are always percent cleaved-caspase-3/cleaved-PARP double positive cells.
as §4

[7] = system: A549; experiment: Apoptosis, cleaved caspase-3/cleaved PARP flow cytometry; conditions: time-staggered inhibition of EGFR using erlotinib (ERL→DOX)
[8] = system: NCI-H358; experiment: as above; conditions: time-staggered inhibition of EGFR using erlotinib (ERL→DOX)
[9] = system: BT-20 cells; experiment: Soft agar growth assay; type: cell-based, human; conditions: sustained EGFR inhibition with erlotinib
Description: Soft agar growth assays were performed as described by Sapi, E., Flick, M. B., Rodov, S, and Kacinski, B. M. (1998). Ets-2 Transdominant Mutant Abolishes Anchorage-Independent Growth and Macrophage Colony Stimulating Factor-Stimulated Invasion by BT20 Breast Carcinoma Cells. Cancer Res. 58, 1027-1033.

[10] = system: NCI-H1650 cells; experiment: Apoptosis, cleaved caspase-3/cleaved PARP flow cytometry; conditions: time-staggered inhibition of EGFR using erlotinib (ERL→DOX)
[11] = system: caspase-8; experiment: Caspase-8 cleavage by western blot in lung cancer cell lines; type: cell-based, human; conditions: ERL→DOX in NCI-H1650, A549 and NCI-H358
Source text: (§6) Cells were lysed in a manner that would allow samples to be used for both western blot analysis and reverse-phase protein microarray. Data generated by quantitative western blot were preprocessed prior to use in computational modeling. Raw signals for each protein target of interest were quantified and background subtracted using the Li-COR Odyssey software and divided by P-actin signals to normalize for loading differences, and then each normalized signal was divided by a reference sample contained on each gel for gel-to-gel normalization.

[12] = system: MDA-MB-453 cells; experiment: Apoptosis, cleaved caspase-3/cleaved PARP flow cytometry; type: cell-based, human
Description: as §5, §4

[13] = system: BT-474 cells; experiment: as above; type: cell-based, human
Description: as §5, §4

[14] = system: Hs578Bst; experiment: as above; type: cell-based, human; conditions: erlotinib-doxorubicin combinations; normal peripheral breast tissue line
Description: as §3, §4

[15] = system: MCF7 cells; experiment: as above
[16] = system: caspase-8; experiment: Caspase-8 cleavage by western blot in TNBC cell lines; type: cell-based, human; conditions: TNBC cell lines in which ERL→DOX was synergistic; 8 hr after DOX
Source text: as §6

[17] = system: caspase-8; experiment: Caspase-8 cleavage by western blot in HER2-driven cells; type: cell-based, human; conditions: lapatinib/doxorubicin combinations in HER2-driven cells (MDA-MB-453, BT-474)
Source text: as §6

[18] = single dose doxorubicin alone, 4 mg/kg intraperitoneally
[19] = all temporal combinations of lapatinib and doxorubicin, HER2-overexpressing cells
[20] = lapatinib pretreatment (LAP→DOX)

For `COc1cccc2c1C(=O)c1c(O)c3c(c(O)c1C2=O)C[C@@](O)(C(=O)CO)C[C@@H]3O[C@H]1C[C@H](N)[C@H](O)[C@H](C)O1` [doxorubicin], the “time at which residual tumors reached pretreatment volume” value [1, 18] was 14 days and the “tumor volume over the first 3 days after treatment” value [1, 18] was “marked reduction in tumor volume”.
`C#Cc1cccc(Nc2ncnc3cc(OCCOC)c(OCCOC)cc23)c1` [erlotinib] was tested, and the “breast cancer subtype gene expression pattern” value ([2]; chronic erlotinib treatment) was “progressive time-dependent loss of basal-like gene expression with concomitant gain in luminal A-like gene expression”, the “differentially expressed genes (DEGs)” value ([2]; 30 min) was “few” and the “differentially expressed genes (DEGs)” value ([2]; 6 hr) was “more than 1,200”. For the same compound, the “differentially expressed genes (DEGs)” value ([2]; 24 hr) was “more than 2,000”, the “GeneGO cellular networks with significant changes (of 34)” value ([2]; long-term erlotinib treatment) was 16 and the GSEA oncogenic signatures ([2]; sustained erlotinib exposure) was “loss of the Ras and MYC oncogenic signatures”. The “differentially expressed genes (DEGs)” value [3] was 235, the genes significantly altered [4] was “one” and the “increase in cell killing (apoptotic response)” value [5] was at most 500%. For the same compound, the “interaction with doxorubicin in killing (Chou-Talalay method)” value [5] was “synergistic”, the “killing in combination with camptothecin” value [5] was “Synergistic killing” and the “killing in combination with doxorubicin” value [5] was “Synergistic killing”. The “effect on apoptosis of adding erlotinib to EGFR knockdown cells” value ([5]; EGFR siRNA knockdown, delayed doxorubicin) was “no additional effect”, the cell death ([5]; erlotinib alone) was “did not cause death” and the apoptotic stimulus ([5]; erlotinib alone or added at the same time as or shortly before doxorubicin, 10 μM, TNBC (BT-20) cells) was “not a potent apoptotic stimulus”. The “cell lines with enhanced sensitivity to doxorubicin” value ([6]; sustained EGFR inhibition) was “nine of ten”, the “cell lines with synergistic effect” value ([6]; Chou-Talalay combination index) was “four of the ten” and the “sensitization to killing by doxorubicin” value [7] was “dramatic sensitization”. The “sensitization to killing by doxorubicin” value [8] was “dramatic sensitization”, the “soft agar colony formation” value [9] was “potently inhibited” and the “sensitization to killing by doxorubicin” value [10] was “dramatic sensitization”. For the same compound, the caspase-8 cleavage [11] was “associated with caspase-8 cleavage”, the tumor regrowth ([1]; erlotinib 25 mg/kg given 8 hr prior to doxorubicin 4 mg/kg (E→D), i.p., 14 day monitoring) was “failed to regrow” and the “initial reduction in tumor size versus doxorubicin alone” value ([1]; erlotinib 25 mg/kg given at the same time as doxorubicin 4 mg/kg (D/E), i.p.) was “initial reduction in tumor size was greater”. For the same compound, the “effect on doxorubicin sensitivity” value ([12]; chronic EGFR inhibition, erlotinib pretreatment before doxorubicin) was “antagonized doxorubicin sensitivity; also recorded: desensitized”, the cell death ([12]; erlotinib alone) was “did not cause death” and the “effect on sensitivity to doxorubicin” value ([13]; pretreatment with erlotinib) was “desensitization”. The “effect of order and timing of drug addition on apoptosis” value [14] was “little effect”, the “interaction with doxorubicin (Chou-Talalay method)” value ([15]; all temporal erlotinib-doxorubicin combinations) was “merely additive” and the cell death ([15]; erlotinib alone) was “did not cause death”. For the same compound, the caspase-8 cleavage [16] was “caspase-8 cleavage following sequential administration, but not other drug treatments”.
`CS(=O)(=O)CCNCc1ccc(-c2ccc3ncnc(Nc4ccc(OCc5cccc(F)c5)c(Cl)c4)c3c2)o1` [lapatinib] was tested, and the “killing in combination with camptothecin” value ([5]; time-staggered pretreatment with EGFR inhibitor, then camptothecin) was “Synergistic killing”, the “killing in combination with doxorubicin” value ([5]; time-staggered pretreatment with EGFR inhibitor, then doxorubicin) was “Synergistic killing” and the caspase-8 cleavage [17] was “only observed following LAP→DOX treatment”. For the same compound, the interaction with doxorubicin [12, 19] was “synergistic”, the “effect on sensitivity to doxorubicin” value [12, 20] was “enhanced sensitivity to doxorubicin” and the interaction with doxorubicin [13, 19] was “synergistic”. The “effect on sensitivity to doxorubicin” value [13, 20] was “enhanced sensitivity to doxorubicin”.

From patent US9320750B2, “Compositions and methods of treatment of drug resistant cancers” (priority 2012, dated 2016)
